# Patent US8647867B2, “Cell cultivation method and cell culture” (National University Corportion Okayama University, priority 2005, dated 2014)
# Legend:
# porcine pancreatic islet = test: Insulin production ability of cultured porcine pancreatic islet; format: cell-based
# Method: A process of isolation of porcine pancreatic islet was carried out according to the method for isolation of human pancreatic islet (see, Lakey J R T, Kobayashi N, Shapiro A M J, Ricordi C, Okitsu T: Current human islet isolation protocol. Medical Review Co., Ltd., Osaka, Japan, 2004), and followed a method in a published literature (Yonekawa Y, Matsumono S, Okitsu T, Arata T, Iwanaga Y, Noguchi H, Nagata H, O'Neil J J, Tanaka K: Effective islet isolation method with extremely high islet yields from adult pigs. Cell Transplant. 14(10): 757-62, 2005). Those skilled in the art are capable of isolating pancreatic islet by referring to this literature.
# Insulin production abilities of cultured porcine pancreatic islet were determined and compared between groups A and B. Using low glucose DMEM (glucose concentration: […]) (available from 25 GIBCO, Oakland, N.J.) supplemented with 10% FCS, nicotineamide 10 mM and penicillin G/streptomycin, cells were cultured for 24 hours until 60% confluency (low glucose). Then, the medium was changed for high glucose DMEM (glucose concentration: […]) (available from GIBCO, Oakland, N.J.) supplemented with 10% FCS, nicotineamide 10 mM and penicillin G/streptomycin, and cells were cultured for 6 hours (high glucose). After high glucose culture, the medium was exchanged for low glucose DMEM and cells were cultured for 6 hours (low glucose (after)). After each culture operation, the production amount of insulin in the culture medium (μg/l) was determined by an immunostaining method using a rabbit anti-human insulin antibody (available from DakoCytomation K. K., Kyoto, Japan).
# human hepatocyte = test: Metabolic ability of ammonia in cultured human hepatocyte; format: cell-based; conditions: culture without insert; for ammonia metabolic rate: ammonium sulfate 0.56 mM, after 24 hours
# From the text: Donor liver judged to be unsuitable for transplantation in the United States was obtained from National Disease Research Interchange via HUMAN & ANIMAL BRIDGING […] ORGANIZATION laboratory (Ichikawa city, Chiba prefecture, responsible person) in the form of liver block (130 g) which was then separated into hepatocyte in the same manner as for the above-described isolation of porcine hepatocyte in Example 1.
# porcine hepatocyte [1] = test: Metabolic ability of diazepam in cultured porcine hepatocyte
# Method: Large white male pigs (body weight: 15 to 20 kg) were used. 1.5 ml of ketalar for intramuscular injection was injected to cause sedation and then, auricular vein was acquired and 5 mg/kg of isozol and 1 mg/kg of musculax were administered intravenously to obtain muscle relaxation. After endotracheal intubation, peritoneotomy was performed under general anesthesia with sevoflurene under controlled ventilation by an artificial respirator. A liver lateral region of the pig was surgically excised (about 80 g), perfusion was performed through excised cross-section portal vein and hepatic vein. First, the excised liver was perfused with a primary perfusion solution (sodium chloride 9 g/L, potassium chloride 0.42 g/L, sodium hydrogen carbonate 2.1 g/L, glucose 0.9 g/L, HEPES 4.78 g/L, ethylenediamine tetraacetic acid (EDTA) 0.37 g/L), subsequently, perfused with a secondary perfusion solution containing no EDTA (sodium chloride 9 g/L, potassium chloride 0.42 g/L, sodium hydrogen carbonate 2.1 g/L, glucose 0.9 g/L, HEPES 4.78 g/L). Thereafter, perfusion of the liver, kept at 39° C., was done with a dispase solution (sodium chloride 9 g/L, potassium chloride 0.42 g/L, sodium hydrogen carbonate 2.1 g/L, glucose 0.9 g/L, HEPES 4.78 g/L, dispase 8.4 g/L) (available from Godo Shusei K. K., Tokyo, Japan) and finally, with a collagenase solution (sodium chloride 9 g/L, potassium chloride 0.42 g/L, sodium hydrogen carbonate 2.1 g/L, glucose 0.9 g/L, HEPES 4.78 g/L, collagenase 0.5 g/L (available from Nitta Gelatin Inc., Osaka, Japan), calcium chloride monohydrate 0.55 g/L). […]
# The metabolic abilities of diazepam in cultured porcine hepatocyte were measured and compared between groups A and B. Diazepam (1 pg/ml) was added to porcine hepatocyte media on days 1, 7 and 14 of culture, and the concentration of diazepam in the media after 24 hours was measured (entrusted to SRL K. K.), and the metabolic rate was calculated.
# human pancreatic islet = test: Morphological study of cultured human pancreatic islet by electron microscope (morphological criteria, points); format: cell-based; conditions: human pancreatic islets, day 5 of culture
# Method: As the inspection method of cultured pancreatic islets, a method is mentioned in which the following 4 items as morphological criteria are evaluated at 5 levels (1 to 5 points) (see, literature: Matsumoto S, Qualley S A, Goel S, et al., Effect of the two-layer (University of Wisconsin solution-Perfluorochemical plus 02) method of pancreas preservation on human islet isolation as assessed by Edmonton isolation protocol. Transplantation 2002; 74: 1414).
# Evaluation is performed at 5 levels of “flat: 1 point”, “approximately flat: 2 points”, “irregularly spherical: 3 points”, “approximately spherical: 4 points”, and “spherical: 5 points”.
# Evaluation is performed at 5 levels of “irregular: 1 point”, “approximately irregular: 2 points”, “somewhat well-rounded: 3 points”, “approximately well-rounded: 4 points”, and “well-rounded: 5 points”. Among these, “well-rounded: 5 points” is most preferable.
# Evaluation is performed at 5 levels of “fragmented: 1 point”, “approximately fragmented: 2 points”, “somewhat solid/compact: 3 points”, “approximately solid/compact: 4 points”, and “solid/compact: 5 points”. Among these, “solid/compact: 5 points” is most preferable.
# Evaluation is performed at 5 levels of “smaller than 100 μm for individual cultured pancreatic islets (all <100 μm): 1 point”, “100 to 150 μm for individual cultured pancreatic islets: 2 points”, “[…] for individual cultured pancreatic islets: 3 points”, “150 to 200 μm for individual cultured pancreatic islets: 4 points”, and “larger than 200 μm for at least 10% of individual cultured pancreatic islets (>10%>200 μm): 5 points”. Among these, “larger than 200 μm for at least 10% of individual cultured pancreatic islets: 5 points” is most preferable. […]
# porcine hepatocyte [2] = test: Metabolic ability of lidocaine in cultured porcine hepatocyte; format: cell-based; set-up: lidocaine metabolic rate: unit not given beside the values; conditions: for lidocaine metabolic rate: lidocaine 1 mg/ml, after 24 hours
# [3] = culture without insert, days 1, 7 and 14
# [4] = porcine hepatocyte, culture without insert, days 1, 7 and 14
smiles,measurement,setting,value
"CC(=O)N[C@@H](CCCNC(=N)N)C(=O)N[C@@H](C)C(=O)N[C@@H](CC(=O)O)C(=O)N[C@@H](C)C(=O)N[C@@H](CCCNC(=N)N)C(=O)N[C@@H](C)C(=O)N[C@@H](CC(=O)O)C(=O)N[C@@H](C)C(=O)N[C@@H](CCCNC(=N)N)C(=O)N[C@@H](C)C(=O)N[C@@H](CC(=O)O)C(=O)N[C@@H](C)C(=O)N[C@@H](CCCNC(=N)N)C(=O)N[C@@H](C)C(=O)N[C@@H](CC(=O)O)C(=O)N[C@@H](C)C(N)=O [Group A, Ac-(RADA)4-CONH2]",production amount of insulin in the culture medium,"porcine pancreatic islet; porcine islets (10 seeded), day 0 of culture, low glucose (100 g/l, 24 hours)",0.80 µg/L
same,production amount of insulin in the culture medium,"porcine pancreatic islet; porcine islets, day 0 of culture, high glucose (450 g/l, 6 hours)",1.62 µg/L
same,production amount of insulin in the culture medium,"porcine pancreatic islet; porcine islets, day 0 of culture, low glucose (after), 6 hours",1.01 µg/L
same,production amount of insulin in the culture medium,"porcine pancreatic islet; porcine islets, day 3 of culture, high glucose (450 g/l, 6 hours)",1.48 µg/L
same,production amount of insulin in the culture medium,"porcine pancreatic islet; porcine islets, day 3 of culture, low glucose (100 g/l, 24 hours)",0.80 µg/L
same,production amount of insulin in the culture medium,"porcine pancreatic islet; porcine islets, day 3 of culture, low glucose (after), 6 hours",0.90 µg/L
same,production amount of insulin in the culture medium,"porcine pancreatic islet; porcine islets, day 5 of culture, high glucose (450 g/l, 6 hours)",1.24 µg/L
same,production amount of insulin in the culture medium,"porcine pancreatic islet; porcine islets, day 5 of culture, low glucose (100 g/l, 24 hours)",0.69 µg/L
same,production amount of insulin in the culture medium,"porcine pancreatic islet; porcine islets, day 5 of culture, low glucose (after), 6 hours",0.78 µg/L
same,production amount of insulin in the culture medium,"porcine pancreatic islet; porcine islets, day 7 of culture, high glucose (450 g/l, 6 hours)",0.90 µg/L
same,production amount of insulin in the culture medium,"porcine pancreatic islet; porcine islets, day 7 of culture, low glucose (100 g/l, 24 hours)",0.49 µg/L
same,production amount of insulin in the culture medium,"porcine pancreatic islet; porcine islets, day 7 of culture, low glucose (after), 6 hours",0.71 µg/L
same,amount of insulin secreted in high glucose concentration (response to glucose concentration),"porcine pancreatic islet; porcine pancreatic islet, day 5 of culture",increased
same,ammonia metabolic rate,"human hepatocyte; Table 4(a), day 1 of culture",45.0
same,ammonia metabolic rate,"human hepatocyte; Table 4(a), day 3 of culture",32.8
same,ammonia metabolic rate,"human hepatocyte; Table 4(a), day 5 of culture",20.4
same,ammonia metabolic rate,"human hepatocyte; Table 4(b), day 1 of culture",45.0
same,ammonia metabolic rate,"human hepatocyte; Table 4(b), day 3 of culture",32.8
same,ammonia metabolic rate,"human hepatocyte; Table 4(b), day 5 of culture",20.4
same,ammonia metabolic rate as compared with collagen type I (monolayer) (group B),"human hepatocyte; days 1, 3 and 5",significantly better
same,ammonia metabolic rate as compared with collagen type I (monolayer) (group B) and Matrigel (group C),"human hepatocyte; days 1, 3 and 5",significantly better
same,"diazepam metabolic rate as compared with collagen type I (monolayer) (group B), Matrigel (group C) and collagen sandwich (group D)","porcine hepatocyte [1]; culture with insert, days 1, 7, 14 and 21",significantly better
same,diazepam metabolic rate as compared with collagen type I (monolayer) (group B),porcine hepatocyte [1]; [3],significantly better
same,diazepam metabolic rate as compared with collagen type I (monolayer) (group B) and Matrigel (group C),porcine hepatocyte [1]; [3],significantly better
same,pancreatic islet morphology: 1. shape,human pancreatic islet,5 (spherical: 5 points)
same,pancreatic islet morphology: 3. integrity,human pancreatic islet,5 (solid/compact: 5 points)
same,pancreatic islet morphology: sum of the evaluation values,human pancreatic islet,16 points
same,lidocaine metabolic rate,"porcine hepatocyte [2]; Table 2(a), culture without insert, day 1 of culture",40.0
same,lidocaine metabolic rate,"porcine hepatocyte [2]; Table 2(a), culture without insert, day 7 of culture",31.9
same,lidocaine metabolic rate,"porcine hepatocyte [2]; Table 2(a), culture without insert, day 14 of culture",19.1
same,lidocaine metabolic rate,"porcine hepatocyte [2]; Table 2(c), culture with insert, day 1 of culture",44.0
same,lidocaine metabolic rate,"porcine hepatocyte [2]; Table 2(c), culture with insert, day 7 of culture",36.9
same,lidocaine metabolic rate,"porcine hepatocyte [2]; Table 2(c), culture with insert, day 14 of culture",32.4
same,lidocaine metabolic rate,"porcine hepatocyte [2]; Table 2(c), culture with insert, day 21 of culture",30.2
same,lidocaine metabolic rate,"porcine hepatocyte [2]; Table 2b, culture without insert, day 1 of culture",40.8
same,lidocaine metabolic rate,"porcine hepatocyte [2]; Table 2b, culture without insert, day 7 of culture",32.2
same,lidocaine metabolic rate,"porcine hepatocyte [2]; Table 2b, culture without insert, day 14 of culture",21.0
same,"lidocaine metabolic rate as compared with collagen type I (monolayer) (group B), Matrigel (group C) and collagen sandwich (group D)","porcine hepatocyte [2]; porcine hepatocyte, culture with insert, days 1, 7, 14 and 21",significantly better
same,lidocaine metabolic rate as compared with collagen type I (monolayer) (group B),porcine hepatocyte [2]; [4],significantly better
same,lidocaine metabolic rate as compared with collagen type I (monolayer) (group B) and Matrigel (group C),porcine hepatocyte [2]; [4],significantly better
